Results from ChEMBL document CHEMBL1201862, “PubChem BioAssay data set” (2004).
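These data come from cells grown in 96-well plates and exposed to compound for 48 hours at five concentrations. GI50: concentration for 50% inhibition of growth.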 Calls of active or inactive are those of the source. Rule as the data show it: active = GI50 up to about 1.1 µM and inactive = higher.

How the values were obtained:
Assay in all cases: DTP human tumour cell line panel, 48 h
[1] = system: NCI-H460
[2] = system: SN12C
[3] = system: NCI-H522
[4] = system: HCT-15
[5] = system: MOLT-4
[6] = system: IGROV-1
[7] = system: HOP-62
[8] = system: LOX IMVI
[9] = system: NCI-H226
[10] = system: MDA-MB-231
[11] = system: SK-MEL-5
[12] = system: SK-MEL-2
[13] = system: OVCAR-8
[14] = system: OVCAR-4
[15] = system: HOP-92
[16] = system: COLO 205
[17] = system: SF-268
[18] = system: Malme-3M
[19] = system: SF-539
[20] = system: BT-549
[21] = system: TK-10
[22] = system: CCRF-CEM
[23] = system: 786-0
[24] = system: RXF 393
[25] = system: PC-3
[26] = system: K562
[27] = system: ACHN
[28] = system: EKVX
[29] = system: T47D
[30] = system: HCC 2998
[31] = system: KM12
[32] = system: SNB-75
[33] = system: A549
[34] = system: DU-145
[35] = system: SK-MEL-28
[36] = system: HCT-116
[37] = system: HL-60
[38] = system: MDA-MB-435
[39] = system: SK-OV-3
[40] = system: UACC-257
[41] = system: Hs-578T
[42] = system: MCF7
[43] = system: UACC-62
[44] = system: A498
[45] = system: SF-295
[46] = system: CAKI-1
[47] = system: MDA-N
[48] = system: SNB-19
[49] = system: U-251
[50] = system: SW-620
[51] = system: OVCAR-3
[52] = system: RPMI-8226
[53] = system: OVCAR-5
[54] = system: UO-31
[55] = system: NCI-H23
[56] = system: M14
[57] = system: NCI/ADR-RES
[58] = system: HT-29
[59] = system: SR

## O=C(O)Cc1nc[nH]c1C(=O)O
[1]
  GI50: > 100 µM (inactive)
[2]
  GI50: > 100 µM (inactive)
[3]
  GI50: > 100 µM (inactive)
[4]
  GI50: > 100000 nM
[5]
  GI50: > 100 µM (inactive)
[6]
  GI50: > 100 µM (inactive)
[7]
  GI50: > 100 µM (inactive)
[8]
  GI50: > 100 µM (inactive)
[9]
  GI50: > 100 µM (inactive)
[10]
  GI50: > 100 µM (inactive)
[11]
  GI50: > 100 µM (inactive)
[12]
  GI50: > 100 µM (inactive)
[13]
  GI50: > 100 µM (inactive)
[14]
  GI50: > 100 µM (inactive)
[15]
  GI50: > 100 µM (inactive)
[16]
  GI50: > 100 µM (inactive)
[17]
  GI50: > 100 µM (inactive)
[18]
  GI50: > 100 µM (inactive)
[19]
  GI50: > 100 µM (inactive)
[20]
  GI50: > 100 µM (inactive)
[21]
  GI50: > 100 µM (inactive)
[22]
  GI50: > 100 µM (inactive)
[23]
  GI50: > 100 µM (inactive)
[24]
  GI50: > 100 µM (inactive)
[25]
  GI50: > 100 µM (inactive)
[26]
  GI50: > 100 µM (inactive)
[27]
  GI50: > 100 µM (inactive)
[28]
  GI50: > 100 µM (inactive)
[29]
  GI50: > 100 µM (inactive)
[30]
  GI50: > 100 µM (inactive)
[31]
  GI50: > 100 µM (inactive)
[32]
  GI50: > 100 µM (inactive)
[33]
  GI50: > 100 µM (inactive)
[34]
  GI50: > 100 µM (inactive)
[35]
  GI50: > 100 µM (inactive)
[36]
  GI50: > 100 µM (inactive)
[37]
  GI50: > 100 µM (inactive)
[38]
  GI50: > 100 µM (inactive)
[39]
  GI50: > 100 µM (inactive)
[40]
  GI50: > 100 µM (inactive)
[41]
  GI50: > 100 µM (inactive)
[42]
  GI50: > 100 µM (inactive)
[43]
  GI50: > 100 µM (inactive)
[44]
  GI50: > 100 µM (inactive)
[45]
  GI50: > 100 µM (inactive)
[46]
  GI50: > 100 µM (inactive)
[47]
  GI50: > 100 µM (inactive)
[48]
  GI50: > 100 µM (inactive)
[49]
  GI50: > 100 µM (inactive)
[50]
  GI50: > 100 µM (inactive)
[51]
  GI50: > 100 µM (inactive)
[52]
  GI50: > 100 µM (inactive)
[53]
  GI50: > 100 µM (inactive)
[54]
  GI50: > 100 µM (inactive)
[55]
  GI50: > 100 µM (inactive)
[56]
  GI50: > 100 µM (inactive)
[57]
  GI50: > 100 µM (inactive)
[58]
  GI50: > 100 µM (inactive)

## COc1ccc2[nH]c3c(C)c4ccnc(NCCCN(C)CCCNc5ccc([N+](=O)[O-])c6[nH]c7ccccc7c(=O)c56)c4c(C)c3c2c1
[1]
  GI50: 0.025 µM (active)
[2]
  GI50: 0.0524 µM (active)
[3]
  GI50: 0.0235 µM (active)
[4]
  GI50: 29.5 nM
[5]
  GI50: 0.005 µM (active)
[6]
  GI50: 0.0291 µM (active)
[7]
  GI50: 0.239 µM (active)
[8]
  GI50: 0.14 µM (active)
[9]
  GI50: 0.421 µM (active)
[10]
  GI50: 0.621 µM (active)
[11]
  GI50: 0.11 µM (active)
[12]
  GI50: 0.731 µM (active)
[13]
  GI50: 0.472 µM (active)
[14]
  GI50: 0.132 µM (active)
[16]
  GI50: 0.0723 µM (active)
[17]
  GI50: 0.52 µM (active)
[18]
  GI50: 0.285 µM (active)
[19]
  GI50: 0.106 µM (active)
[20]
  GI50: 0.678 µM (active)
[21]
  GI50: 0.018 µM (active)
[22]
  GI50: 0.212 µM (active)
[23]
  GI50: 0.0244 µM (active)
[24]
  GI50: 0.0396 µM (active)
[25]
  GI50: 0.426 µM (active)
[26]
  GI50: 0.00652 µM (active)
[27]
  GI50: 0.0207 µM (active)
[28]
  GI50: 0.271 µM (active)
[59]
  GI50: 11.4 nM (active)
[29]
  GI50: 0.815 µM (active)
[30]
  GI50: 0.0178 µM (active)
[31]
  GI50: 0.301 µM (active)
[32]
  GI50: 0.743 µM (active)
[33]
  GI50: 0.0372 µM (active)
[34]
  GI50: 0.628 µM (active)
[35]
  GI50: 0.887 µM (active)
[36]
  GI50: 0.0145 µM (active)
[37]
  GI50: 0.53 µM (active)
[38]
  GI50: 0.471 µM (active)
[39]
  GI50: 0.76 µM (active)
[40]
  GI50: 0.655 µM (active)
[41]
  GI50: 0.604 µM (active)
[42]
  GI50: 0.0667 µM (active)
[43]
  GI50: 0.82 µM (active)
[44]
  GI50: 0.841 µM (active)
[45]
  GI50: 0.104 µM (active)
[46]
  GI50: 0.466 µM (active)
[47]
  GI50: 0.372 µM (active)
[48]
  GI50: 0.284 µM (active)
[49]
  GI50: 0.0887 µM (active)
[50]
  GI50: 0.00811 µM (active)
[51]
  GI50: 0.607 µM (active)
[52]
  GI50: 0.0826 µM (active)
[53]
  GI50: 0.607 µM (active)
[54]
  GI50: 0.59 µM (active)
[55]
  GI50: 0.575 µM (active)
[56]
  GI50: 0.422 µM (active)
[57]
  GI50: 0.592 µM (active)
[58]
  GI50: 0.00813 µM (active)
